Assay results taken from PMC9899896, “Application of a new approach methodology (NAM)-based strategy for genotoxicity assessment of data-poor compounds” (Frontiers in Toxicology, 2023).
Read-outs that look alike come from different tables or passages of the source.

Columns and labels:
[1] = test system: human lymphoblastoid TK6 cells; test: MultiFlow DNA Damage assay (γH2AX, p53, p-H3, polyploidy); type: cell-based
Procedure: Treated cells were gently resuspended and 25 µL/well was mixed thoroughly with the labeling solution. The plate was incubated for 30 min at room temperature shielded from light.
The γH2AX and p53 endpoints were measured based on their median fluorescence intensity (i.e., mean channel fluorescence or MCF) relative to the DMSO solvent control. The p-H3 and polyploidy endpoints were measured based on their frequencies among all events (i.e., all 2n–4n and polyploidy (8n) DNA content). The equations for calculating γH2AX shift, nuclear p53 shift, % polyploidy, and % p-H3 positive events are shown below.
Latex microspheres were used as counting beads to determine nuclear density.
Litron developed Global Evaluation Factors (GEF) to identify a biologically significant increase in select biomarker levels.
A clastogenic or aneugenic call required two successive concentrations that met or exceeded the GEFs in at least 2 of the 4 respective MoA biomarkers. Chemicals that met or exceeded two GEFs in a single non-cytotoxic concentration were designated as “weak” responses. In cases where both clastogen and aneugen biomarkers exceeded the GEF the MoA was considered pan-genotoxic. In cases where less than two biomarkers met the GEFs, the call was non-genotoxic.

[2] = test system: human lymphoblastoid TK6 cells; test: Integrated NAM-based test strategy (TGx-DDI + MicroFlow + MultiFlow; ToxPi integration of BMCs); settings: from TGx-DDI, MicroFlow and MultiFlow calls
[3] = Viability assessment (propidium iodide fluorescence, flow cytometry); settings: human, TK6 lymphoblastoid cells with S9
[4] = test system: human lymphoblastoid TK6 cells; test: TGx-DDI transcriptomic biomarker classification (TempO-Seq S1500+) and BMC modeling; settings: for TGx-DDI summary classification: TK6 cells, 4H exposure; for Strength / consistency of TGx-DDI response (text): across concentrations and the three statistical analyses; for TGx-DDI classification: overall call from 2-DC, PCA, NSC-PA, S9 condition as in Figure 1
[5] = test system: human lymphoblastoid TK6 cells; test: In vitro MicroFlow assay (flow cytometry-based micronucleus test); settings: for MicroFlow summary classification (MN induction): TK6 cells, 4H exposure, 24-h sampling; for MicroFlow %MN response (text): positive: >2.5 fold-increase in %MN and p < 0.05 vs vehicle
[6] = test system: human lymphoblastoid TK6 cells; test: Viability assessment (propidium iodide fluorescence, flow cytometry); settings: TK6 cells, ± S9, quantified at 24 h via propidium iodide
[7] = test system: chromosome damage; set-up: method as in De Boeck et al., 2005; settings: ref De Boeck et al., 2005; cited from earlier work
[8] = test system: human lymphoblastoid TK6 cells
[9] = test system: chromosome damage; set-up: method as in Matsushima et al., 1999; Von Der Hude et al., 2000; settings: ref Matsushima et al., 1999; Von Der Hude et al., 2000; cited from earlier work
[10] = test system: HepaRG™ cells; set-up: method as in Buick et al., 2020; settings: ref Buick et al., 2020; cited from earlier work
[11] = test system: HepaRG™ cells; set-up: method as in Buick et al., 2020; settings: ref Buick et al., 2020; cited from earlier work; remark: listed apart in the source
[12] = follow-up assay; ref Avlasevich et al., 2021; cited from earlier work
[13] = test system: MN; settings: known apoptogens; ref Avlasevich et al., 2021; cited from earlier work
[14] = +S9, TK6 cells, 4H and 24H sampling
[15] = -S9, TK6 cells, 4H and 24H sampling
[16] = +S9 (rat liver S9), 3 h recovery

In the case of Cc1ccc(NCCO)c([N+](=O)[O-])c1 [NSACB 8, 2-[(4-methyl-2-nitrophenyl)amino]ethanol], the “MultiFlow summary classification (call and MoA)” value (from here on “MultiFlow summary classification”) [1, 14] is reported as “-”, the “MultiFlow summary classification” value [1, 15] is reported as “-” and the “MultiFlow MoA classification” value ([1]; GEF-based call, in at least one S9 condition) is reported as “non-genotoxic”. The Integrated hazard conclusion [2] was “somewhat ambiguous”, the viability at 24 h [3] was 46% and the TGx-DDI summary classification [4, 16] was “+”. The TGx-DDI summary classification ([4]; -S9) was “-”, the “Strength / consistency of TGx-DDI response (text)” value (shortened to “Strength / consistency”) ([4]; listed as 8) was “weaker DDI responses” and the “Strength / consistency” value ([4]; listed as NSACB #8) was “two DDI calls at the highest concentration by NSC-PA and PCA”. For the same compound, the “TGx-DDI classification” value [4] was “DDI”, the “MicroFlow summary classification (MN induction)” value (from here on “MicroFlow summary classification”) ([5]; +S9) was “+” and the “MicroFlow summary classification” value ([5]; -S9) was “-”. For the same compound, the “MicroFlow %MN response (text)” value ([5]; listed as 8) was “robust fold-increase in %MN with a clear concentration-response relationship” and the “MicroFlow %MN response (text)” value ([5]; listed as #8) was “only tested positive with S9 conditions”.
For Cc1c2ccccc2c(C)c2c1ccc1ccccc12 [DMBA, 7,12-dimethylbenz[a]anthracene, reference compound], the “MultiFlow summary classification” value [1, 14] was “+ C”, the “MultiFlow summary classification” value [1, 15] was “-” and the “MultiFlow biomarkers with responses” value ([1]; fold-increase over solvent control) was 4H & 24H ɣH2AX. The “Effect on cell viability” value [6] was “caused a decline in viability”, the “Chromosome damage in vivo” value [7] was “induce chromosome damage” and the TGx-DDI summary classification [8] was “+”. For the same compound, the “Strength / consistency” value [4] was “strong TGx-DDI response”, the “TGx-DDI classification” value [4] was “DDI” and the “MicroFlow summary classification” value ([5]; +S9) was “+”. For the same compound, the “MicroFlow summary classification” value ([5]; -S9) was “+”, the “MicroFlow %MN response (text)” value [5] was “significant fold-increases in %MN” and the “Chromosome damage in vitro” value [9] was “induce chromosome damage”.
In the case of COc1cc2c(c(OC)c1OC)-c1ccc(OC)c(=O)cc1[C@@H](NC(C)=O)CC2 [colchicine], the TGx-DDI classification [10] is listed as “negative (non-DDI)” and the MN result [11] is listed as “positive”.
With Nc1ccc(Cl)cc1C(=O)c1ccccc1 [NSACB 1, 2-amino-5-chlorobenzophenone] the “MultiFlow MoA classification” value [1] was “non-genotoxic”, the “MultiFlow summary classification” value [1] was “-” and the “MultiFlow biomarkers with responses” value ([1]; human) was “moderate to robust response increase in one of the aneugenic biomarkers (i.e., 4H p-H3)”. The Integrated hazard conclusion [2] was “somewhat ambiguous”, the viability at 24 h [3] was 43% and the TGx-DDI summary classification [4, 16] was “+”. The TGx-DDI summary classification ([4]; -S9) was “-”, the “Strength / consistency” value ([4]; listed as #1) was “weaker DDI responses” and the “Strength / consistency” value ([4]; listed as NSACB #1) was “one DDI call at the highest concentration in the NSC-PA only”. For the same compound, the “TGx-DDI classification” value [4] was “DDI”, the “MicroFlow summary classification” value ([5]; +S9) was “+” and the “MicroFlow summary classification” value ([5]; -S9) was “+”. For the same compound, the “MicroFlow %MN response (text)” value [5] was “robust fold-increase in %MN with a clear concentration-response relationship”.
In the case of C[C@H]1CCC/C=C/[C@@H]2C[C@H](O)C[C@H]2[C@H](O)/C=C/C(=O)O1 [brefeldin A], the MultiFlow classification [12] is given as “non-genotoxicants” and the “MicroFlow MN result” value [13] is given as “induce MN”.
